Test results: PubChem BioAssay (NCI)
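Compound exposure: 48 hours, 5 concentrations, 96-well plates. GI50 = concentration required for 50% inhibition of growth. TGI denotes the concentration required for complete inhibition of growth.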 Where a SMILES comes first, the peptide text is derived from it. [ ]: non-standard residue; d: D form. The star is where a group is joined. dTle = CC(C)(C)[C@@H](N)C(=O)O; 4Abz = Nc1ccc(C(=O)O)cc1; NHOH = ON*

Tests used:
Assay in all cases: NCI tumour cell line growth inhibition, 48 h
786-0 renal = system: 786-0 renal
CAKI-1 renal = system: CAKI-1 renal
COLO 205 colon = system: COLO 205 colon
DU-145 prostate = system: DU-145 prostate
EKVX NSCLC = system: EKVX NSCLC
HCT-116 colon = system: HCT-116 colon
NCI-H23 lung = system: NCI-H23 lung
NCI/ADR-RES ovarian = system: NCI/ADR-RES ovarian
OVCAR-4 ovarian = system: OVCAR-4 ovarian
SN12C renal = system: SN12C renal

| Structure (SMILES) | GI50 (786-0 renal) [µM] | TGI (786-0 renal) [µM] | GI50 (CAKI-1 renal) [µM] | TGI (CAKI-1 renal) [µM] | GI50 (COLO 205 colon) [µM] | TGI (COLO 205 colon) [µM] | GI50 (DU-145 prostate) [µM] | TGI (DU-145 prostate) [µM] | GI50 (EKVX NSCLC) [µM] | TGI (EKVX NSCLC) [µM] | GI50 (HCT-116 colon) [µM] | TGI (HCT-116 colon) [µM] | GI50 (NCI-H23 lung) [µM] | TGI (NCI-H23 lung) [µM] | GI50 (NCI/ADR-RES ovarian) [µM] | TGI (NCI/ADR-RES ovarian) [µM] | GI50 (OVCAR-4 ovarian) [µM] | TGI (OVCAR-4 ovarian) [µM] | GI50 (SN12C renal) [µM] | TGI (SN12C renal) [µM] |
| --- | --- | --- | --- | --- | --- | --- | --- | --- | --- | --- | --- | --- | --- | --- | --- | --- | --- | --- | --- | --- |
| NS(=O)(=O)CC1CC[CH-]CC1.[Cl-].[Cl-].[Cl-].[Cl-].[Cl-].[Sb+5].c1ccncc1 | > 100 | > 100 | > 100 | > 100 | > 100 | > 100 | > 100 | > 100 | > 100 | > 100 | > 100 | > 100 | > 100 | > 100 | > 100 | > 100 | > 100 | > 100 | > 100 | > 100 |
| O=C(/C=C/C12c3ccccc3C(c3ccccc31)C1C(=O)NC(=O)C12)c1ccc(F)cc1 (stereo not given) | 1.79 | 3.35 | 1.87 | 4.37 | 2.18 | 4.27 | 1.63 | 3 | 1.7 | 4.45 | 1.58 | 3.41 | 1.83 | 3.91 | 1.87 | 4.03 | 3.46 | 13.2 | 1.7 | 3.29 |
| CCCCCCCCCNC(=O)/C=C/c1ccc(O)c(O)c1 | 14.3 | 29.7 | 3.91 | 24.2 | 15.3 | 54.3 | 17 | 82.1 | 37.5 | > 100 | 4.94 | 18.4 | 17.7 | 39.2 | 15.4 | 46.8 | 13.4 | > 100 | 10.8 | 23.1 |
| CCOC(=O)C1=C(C)N(Cc2ccc(Cl)cc2Cl)C2(O)C=CC(=O)C3=C(O)c4ccccc4C(=O)C312 (stereo not given) | 3.54 | 15.2 | 3.31 | 15 | 4.41 | 20.6 | 7.99 | 28.8 | 10.6 | 47.8 | 3.19 | 11.6 | 3.61 | 16.1 | 0.888 | 10.3 | 11.5 | > 100 | 3.39 | 15.4 |
| C=C1C(=O)O[C@H]2[C@H]1CC/C(COC(=O)C(C)c1ccc(CC(C)C)cc1)=C\CC[C@@]1(C)O[C@@H]21 (stereo not given in full) | 0.395 | 1.65 | 1.67 | 3.04 | 1.91 | 4.1 | 1.59 | 2.95 | 1.75 | 3.35 | 0.187 | 0.376 | 1.77 | 3.92 | 1.85 | 5.54 | 1.71 | 3.35 | 1.34 | 2.72 |
| CC1(C)NCCC[C@]2(C)[C@H]3CC[C@@H]4[C@H]5[C@H](C(=O)/C=C/c6ccccn6)CC[C@]5(CO)CC[C@@]4(C)[C@]3(C)CC[C@@H]12 | 2.43 | 6.26 | 2.14 | 6.85 | 2.07 | 4.28 | 3.56 | 12.4 | 5.51 | 23.4 | 1.72 | 3.15 | 3.33 | 14 | 3.43 | 13.9 | 3.51 | 13 | 3.51 | 16.8 |
| C[C@@H](NC(=O)[C@H](NC(=O)[C@@H]1CCCN1C(=O)CNC(=O)c1ccc(N)cc1)C(C)(C)C)C(=O)NO (H-[4Abz]GP[dTle][dA]-{NHOH}) | > 100 | > 100 | > 100 | > 100 | > 100 | > 100 | > 100 | > 100 | > 100 | > 100 | > 100 | > 100 | > 100 | > 100 | > 100 | > 100 | > 100 | > 100 | > 100 | > 100 |
| CSC(=S)OC1CC(n2cnc3c(NC(=O)c4ccccc4)ncnc32)OC1CO[Si](C)(C)C(C)(C)C (stereo not given) |  | > 56.2 |  | > 46.4 |  | 18.1 |  | 42.6 |  | > 56.2 |  | > 100 |  | > 56.2 |  | > 56.2 |  | > 56.2 |  | 52.2 |
| Cc1cc2c(C(N)=O)c(N)n(-c3c(C)ccc(O)c3C)c2nc1C | 3.37 | > 100 | 0.4 | 10.3 | 1.7 | 11.7 | 4.16 | 19.7 | 21.8 | 98.7 | 2.52 | 15.2 | 1.25 | 4.16 | 6.48 | 32.7 | 0.998 | 8.03 | 2.48 | 34.5 |
